{"source": "PubChem BioAssay AID1259409", "about": "(Chemical Carcinogenesis Research Information System (CCRIS), 2018)", "origin": "cited, not measured here", "system": "rodent chemically induced tumor inhibition, incidence and multiplicity", "experiment": "CCRIS tumor inhibitor studies", "conditions": "Route [Inhibitor]: ORAL, Species: HAMSTER, Promoter: NONE USED"}
{"smiles": "CCNC(=O)/C=C(C)/C=C/C=C(C)/C=C/C1=C(C)CCCC1(C)C", "values": [{"measurement": "tumour outcome (control, treated, inhibition, significance)", "setting": "Carcinogen: N-NITROBIS(2-OXOPROPYL)AMINE, 60559-38-4, Dose [Inhibitor]: 0.5 OR 1.0 MMOL/KG DIET DAILY STARTING 1 WK AFTER CARCINOGEN TREATMENT AND CONTINUING THROUGH THE END OF THE STUDY (STUD, Strain/Sex: SYRIAN/MALE, Target Tissue: Type of Lesion: ND: TOTAL TUMOR, Dose [Carcinogen]: 40 MG/KG BW SINGLE ONCE", "value": "20/24 (83%), 37/40 (90%), -8%, not significant"}, {"measurement": "tumour outcome (control, treated, inhibition, significance)", "setting": "Carcinogen: N-NITROBIS(2-OXOPROPYL)AMINE, 60559-38-4, Dose [Inhibitor]: 0.5 OR 1.0 MMOL/KG DIET DAILY STARTING 1 WK AFTER CARCINOGEN TREATMENT AND CONTINUING THROUGH THE END OF THE STUDY (STUD, Strain/Sex: SYRIAN/MALE, Target Tissue: Type of Lesion: PANCREAS: DUCTULAR ADENOMA, Dose [Carcinogen]: 10 MG/KG BW ONCE", "value": "3/22 (14%), 16/30 (53%), -279%, p<0.05"}, {"measurement": "tumour outcome (control, treated, inhibition, significance)", "setting": "Carcinogen: N-NITROBIS(2-OXOPROPYL)AMINE, 60559-38-4, Dose [Inhibitor]: 0.5 OR 1.0 MMOL/KG DIET DAILY STARTING 1 WK AFTER CARCINOGEN TREATMENT AND CONTINUING THROUGH THE END OF THE STUDY (STUD, Strain/Sex: SYRIAN/MALE, Target Tissue: Type of Lesion: PANCREAS: DUCTULAR ADENOMA, Dose [Carcinogen]: 40 MG/KG BW ONCE", "value": "8/24 (33%), 33/40 (82%), -148%, not significant"}, {"measurement": "tumour outcome (control, treated, inhibition, significance)", "setting": "Carcinogen: N-NITROBIS(2-OXOPROPYL)AMINE, 60559-38-4, Dose [Inhibitor]: 0.5 OR 1.0 MMOL/KG DIET DAILY STARTING 1 WK AFTER CARCINOGEN TREATMENT AND CONTINUING THROUGH THE END OF THE STUDY (STUD, Strain/Sex: SYRIAN/MALE, Target Tissue: Type of Lesion: PANCREAS: DUCTULAR CARCINOMA, Dose [Carcinogen]: 10 MG/KG BW ONCE", "value": "4/22 (18%), 10/30 (33%), -83%, not significant"}, {"measurement": "tumour outcome (control, treated, inhibition, significance)", "setting": "Carcinogen: N-NITROBIS(2-OXOPROPYL)AMINE, 60559-38-4, Dose [Inhibitor]: 0.5 OR 1.0 MMOL/KG DIET DAILY STARTING 1 WK AFTER CARCINOGEN TREATMENT AND CONTINUING THROUGH THE END OF THE STUDY (STUD, Strain/Sex: SYRIAN/MALE, Target Tissue: Type of Lesion: PANCREAS: DUCTULAR CARCINOMA, Dose [Carcinogen]: 40 MG/KG BW ONCE", "value": "5/24 (21%), 20/40 (50%), -138%, not significant"}, {"measurement": "tumour outcome (control, treated, inhibition, significance)", "setting": "Carcinogen: N-NITROBIS(2-OXOPROPYL)AMINE, 60559-38-4, Dose [Inhibitor]: 0.5 OR 1.0 MMOL/KG IN DIET STARTING 1 WK AFTER CARCINOGEN DOSE FOR DURATION OF STUDY (STUDY DURATION: 40 WK), Strain/Sex: SYRIAN/FEMALE, Target Tissue: Type of Lesion: LIVER: BENIGN TUMOR, Dose [Carcinogen]: 40 MG/KG BW SINGLE INJECTION", "value": "4/20 (20%), 17/37 (46%), -130%, not significant"}, {"measurement": "tumour outcome (control, treated, inhibition, significance)", "setting": "Carcinogen: N-NITROBIS(2-OXOPROPYL)AMINE, 60559-38-4, Dose [Inhibitor]: 0.5 OR 1.0 MMOL/KG IN DIET STARTING 1 WK AFTER CARCINOGEN DOSE FOR DURATION OF STUDY (STUDY DURATION: 40 WK), Strain/Sex: SYRIAN/MALE, Target Tissue: Type of Lesion: LIVER: BENIGN TUMOR, Dose [Carcinogen]: 40 MG/KG BW SINGLE INJECTION", "value": "5/24 (21%), 25/41 (62%), -195%, p<0.05"}, {"measurement": "tumour outcome (control, treated, inhibition, significance)", "setting": "Carcinogen: N-NITROBIS(2-OXOPROPYL)AMINE, 60559-38-4, Dose [Inhibitor]: 0.5 OR 1.0 MMOL/KG/D IN DIET STARTING 1 WK AFTER CARCINOGEN TREATMENT AND CONTINUING THROUGH THE END OF THE STUDY (STUDY, Strain/Sex: SYRIAN/FEMALE, Target Tissue: Type of Lesion: PANCREAS: DUCTULAR ADENOMA, Dose [Carcinogen]: 10 MG/KG BW ONCE", "value": "5/23 (23%), 13/25 (52%), -126%, not significant"}, {"measurement": "tumour outcome (control, treated, inhibition, significance)", "setting": "Carcinogen: N-NITROBIS(2-OXOPROPYL)AMINE, 60559-38-4, Dose [Inhibitor]: 0.5 OR 1.0 MMOL/KG/D IN DIET STARTING 1 WK AFTER CARCINOGEN TREATMENT AND CONTINUING THROUGH THE END OF THE STUDY (STUDY, Strain/Sex: SYRIAN/FEMALE, Target Tissue: Type of Lesion: PANCREAS: DUCTULAR ADENOMA, Dose [Carcinogen]: 40 MG/KG BW ONCE", "value": "12/20 (60%), 27/37 (73%), -22%, not significant"}, {"measurement": "tumour outcome (control, treated, inhibition, significance)", "setting": "Carcinogen: N-NITROBIS(2-OXOPROPYL)AMINE, 60559-38-4, Dose [Inhibitor]: 0.5 OR 1.0 MMOL/KG/D IN DIET STARTING 1 WK AFTER CARCINOGEN TREATMENT AND CONTINUING THROUGH THE END OF THE STUDY (STUDY, Strain/Sex: SYRIAN/FEMALE, Target Tissue: Type of Lesion: PANCREAS: DUCTULAR CARCINOMA, Dose [Carcinogen]: 10 MG/KG BW ONCE", "value": "6/23 (27%), 6/25 (24%), 11%, not significant"}, {"measurement": "tumour outcome (control, treated, inhibition, significance)", "setting": "Carcinogen: N-NITROBIS(2-OXOPROPYL)AMINE, 60559-38-4, Dose [Inhibitor]: 0.5 OR 1.0 MMOL/KG/D IN DIET STARTING 1 WK AFTER CARCINOGEN TREATMENT AND CONTINUING THROUGH THE END OF THE STUDY (STUDY, Strain/Sex: SYRIAN/MALE, Target Tissue: Type of Lesion: PANCREAS: DUCTULAR ADENOMA, Dose [Carcinogen]: 10 MG/KG BW ONCE", "value": "3/22 (14%), 16/30 (53%), -279%, p<0.05"}, {"measurement": "tumour outcome (control, treated, inhibition, significance)", "setting": "Carcinogen: N-NITROBIS(2-OXOPROPYL)AMINE, 60559-38-4, Dose [Inhibitor]: 0.5 OR 1.0 MMOL/KG/D IN DIET STARTING 1 WK AFTER CARCINOGEN TREATMENT AND CONTINUING THROUGH THE END OF THE STUDY (STUDY, Strain/Sex: SYRIAN/MALE, Target Tissue: Type of Lesion: PANCREAS: DUCTULAR ADENOMA, Dose [Carcinogen]: 40 MG/KG BW ONCE", "value": "8/24 (33%), 33/40 (82%), -148%, not significant"}, {"measurement": "tumour outcome (control, treated, inhibition, significance)", "setting": "Carcinogen: N-NITROBIS(2-OXOPROPYL)AMINE, 60559-38-4, Dose [Inhibitor]: 0.5 OR 1.0 MMOL/KG/D IN DIET STARTING 1 WK AFTER CARCINOGEN TREATMENT AND CONTINUING THROUGH THE END OF THE STUDY (STUDY, Strain/Sex: SYRIAN/MALE, Target Tissue: Type of Lesion: PANCREAS: DUCTULAR CARCINOMA, Dose [Carcinogen]: 10 MG/KG BW ONCE", "value": "4/22 (18%), 10/30 (33%), -83%, not significant"}, {"measurement": "tumour outcome (control, treated, inhibition, significance)", "setting": "Carcinogen: N-NITROBIS(2-OXOPROPYL)AMINE, 60559-38-4, Dose [Inhibitor]: 0.5 OR 1.0 MMOL/KG/D IN DIET STARTING 1 WK AFTER CARCINOGEN TREATMENT AND CONTINUING THROUGH THE END OF THE STUDY (STUDY, Strain/Sex: SYRIAN/MALE, Target Tissue: Type of Lesion: PANCREAS: DUCTULAR CARCINOMA, Dose [Carcinogen]: 40 MG/KG BW ONCE", "value": "5/24 (21%), 20/40 (50%), -138%, not significant"}, {"measurement": "tumour outcome (control, treated, inhibition, significance)", "setting": "Carcinogen: N-NITROBIS(2-OXOPROPYL)AMINE, 60599-38-4, Dose [Inhibitor]: 0.5 OR 1 MMOL/KG DIET DAILY STARTING 1 WK AFTER CARCINOGEN TREATMENT AND CONTINUING THROUGH THE END OF THE STUDY (STUDY, Strain/Sex: SYRIAN/FEMALE, Target Tissue: Type of Lesion: PANCREAS: DUCTULAR CARCINOMA, Dose [Carcinogen]: 40 MG/KG BW ONCE", "value": "6/20 (30%), 16/37 (43%), -43%, not significant"}, {"measurement": "tumour outcome (control, treated, inhibition, significance)", "setting": "Carcinogen: N-NITROBIS(2-OXOPROPYL)AMINE, 60599-38-4, Dose [Inhibitor]: 0.5 OR 1.0 MMOL/KG/D IN DIET STARTING 1 WK AFTER CARCINOGEN TREATMENT AND CONTINUING THROUGH THE END OF THE STUDY (STUDY, Strain/Sex: SYRIAN/FEMALE, Target Tissue: Type of Lesion: PANCREAS: DUCTULAR CARCINOMA, Dose [Carcinogen]: 40 MG/KG BW ONCE", "value": "6/20 (30%), 16/37 (43%), -43%, not significant"}, {"measurement": "tumour outcome (control, treated, inhibition, significance)", "setting": "Carcinogen: N-NITROSOBIS(2-OXYPROPYL)AMINE, 60599-38-4, Dose [Inhibitor]: 0.05, 0.1 OR 0.2 MILLIMOLAR/KG DIET FOR 32 WK STARTING 1 WK AFTER THE CARCINOGEN DOSE (STUDY DURATION: 33 WK), Strain/Sex: SYRIAN/FEMALE, Target Tissue: Type of Lesion: COMMON DUCT: ADENOMA, Dose [Carcinogen]: 40 MG/KG ONCE", "value": "4/10 (40%), 7/26 (32%), 20%, not significant"}]}
